In patent publication US20080234236A1, “REDUCTION OF ADVERSE EVENTS AFTER PERCUTANEOUS INTERVENTION BY USE OF A THROMBIN RECEPTOR ANTAGONIST” (priority 2007, published 2008):
Several values for one entry are separate records, joined by “and”; a condition that tells them apart may be missing. Identical values can stand only once. Entries after “also recorded” stand apart in the source; their conditions may differ.

How the values were obtained:
[1] = Monkey bleeding liability study: forearm template bleeding time; type: in vivo, cynomolgus monkeys; details: for Template bleeding time: anesthetized monkeys, single oral dose (SCH 530348 1 mg/kg, ASA 10 mg/kg, clopidogrel 2 mg/kg), mean ± SEM
Method: Any novel antiplatelet agent should optimally avoid incremental bleeding risk relative to the current standard of care. The bleeding risk of SCH 530348 was evaluated in anesthetized cynomoigus monkeys in which SCH 530348 was administered alone and along with aspirin and clopidogrel. Bleeding assessment was conducted following administration of single doses of SCH 530348 (1 mg/kg) and/or aspirin (10 mg/kg, ASA) and clopidogrel (2 mg/kg). Four groups of monkeys were dosed orally with either vehicle (the medium used to dissolve the drug, 0.4% methylcellulose) or drug (n=5-6/group): Group I: vehicle, Group II: SCH 530348 (1 mg/kg), Group III ASA (10 mg/kg) plus clopidogrel (2 mg/kg) and Group IV: combination of SCH 530348, ASA plus clopidogrel. Doses of various drugs used inhibited their respective platelet pathways by >90% as assessed by ex-vivo platelet aggregation in whole blood. Two hours after dosing, animals were anesthetized and bleeding risk was assessed by forearm template bleeding time and surgical blood loss from a femoral incision site.
Template bleeding time was assessed as follows. The forearm of the monkey was shaved of hair and a precision cut (5 mm long and 1 mm deep) was made on the skin with a Simplate® bleeding device (Organon Tehnika), The duration of bleeding by blotting blood onto a filter paper at the incision site was determined. When blood was no longer absorbed onto the filter paper, bleeding was considered “stopped.” The time from initiation of the cut to when bleeding stopped is defined as the template bleeding time. In these studies bleeding time was assessed on two occasions at approximately 3.5 and 4 hrs after oral dosing with the drug.

platelets [2] = assay: Ex-vivo platelet aggregation in whole blood; set-up: species or system cynomolgus monkeys; details: oral dose of 0.1 mg/kg
[3] = monkey, in vivo
[4] = Phase 2 study (P03573): bleeding in secondary cohort undergoing CABG; type: in vivo, humans; details: for Any bleed, patients (%) / Chest Tube Drainage / TIMI Major/Minor bleeding, patients (%) / Transfusion PRBC, patients (%) / non-TIMI bleeding, patients (%): secondary cohort (CABG treated)
Excerpt: The behavior of SCH 530348 in humans was further studied in a Phase 2 clinical development program. A key safety issue for SCH 530348 is the potential for incremental bleeding when added to standard of care with other oral antiplatelet therapies as well as parenteral antithrombotics. Therefore, a single Phase 2 study (P03573) was completed to evaluate the safety of SCH 530348 in patients at high risk of bleeding events, i.e., those patients undergoing non-emergent PCI (percutaneous coronary intervention). The goals of this Phase 2 study were to: • Evaluate the safety of SCH 530348 in addition to standard of care with respect to TIMI major and minor bleeding; and, • Observe the effects of SCH 530348 on major adverse cardiac events (“MACE”) in patients successfully completing an interventional procedure.
The use of TIMI bleeding classification alone is of limited value and can be misleading in defining bleeding risk in patients undergoing CABG because of the routine use of packed red blood cell (“PRBC”) transfusions to prime the pump and extracorporeal oxygenator, and the resultant decline in hemoglobin that results from the administration of parenteral fluids during surgery. Therefore, other clinically meaningful measures (e.g., chest tube drainage, transfusions, need for re-exploration) were examined.

platelets [5] = assay: Pharmacodynamic substudy: TRAP induced platelet aggregation (light aggregometry); type: in vivo, humans; details: for Tested population achieving clinically relevant inhibition of platelet aggregation: thirty and sixty days; for Maximum inhibition of TRAP-induced platelet aggregation: 1-2 hours post dose
Method: A pharmacodynamic substudy incorporating light aggregometry was performed under stringent physiologic conditions and read by a central core laboratory. […] The term “therpeutically effective amount of a thrombin receptor antagonist” will be understood to mean that quantity of the thrombin receptor antagonist sufficient to achieve at least 80% inhibition of TRAP mediated platelet aggregation.

platelets [6] = assay: Platelet activation (expression of P-selectin or CD40 ligand); set-up: species or system humans; details: in vivo
[7] = in vivo
Excerpt: The Phase 2 study was a randomized, double-blind, placebo-controlled, multicenter, dose-escalation study in men and women with symptoms of coronary heart disease undergoing nonurgent PCI.

Question: For CCOC(=O)N[C@@H]1CC[C@@H]2[C@@H](C1)C[C@H]1C(=O)O[C@H](C)[C@H]1[C@H]2/C=C/c1ccc(-c2cccc(F)c2)cn1.O=S(=O)(O)O [SCH 530348, ethyl [(1R,3aR,4aR,6R,8aR,9S,9aS)-9-[(E)-2-[5-(3-fluorophenyl)-2-pyridinyl]ethenyl]-dodecahydro-1-methyl-3-oxonaphtho[2,3-c]furan-6-yl] carbamate bisulfate], which “Bleeding risk / prolongation of bleeding” value ([1]; SCH 530348 1 mg/kg alone or with aspirin and clopidogrel, 1 mg/kg) is on record?
Answer: no bleeding risk; also recorded: no prolongation of bleeding

Question: And the Template bleeding time [1]?
Answer: 4.9 min

Question: What about the Template bleeding time ([1]; listed as Group II) of the same compound?
Answer: 4.9 ± 0.99 min

Question: What about the “Inhibition of TRAP-driven platelet aggregation (ex-vivo)” value (platelets [2]) of the same compound?
Answer: 100%

Question: And the QT prolongation [3]?
Answer: no evidence of QT prolongation

Question: And the “Total chest tube drainage, proportion with >2 units PRBC transfusion, need for re-exploration versus placebo” value ([4]; patients who underwent CABG)?
Answer: no increase

Question: And the “Any bleed, patients (%)” value ([4]; 10 mg loading dose)?
Answer: 100%

Question: And the “Chest Tube Drainage” value ([4]; 10 mg loading dose)?
Answer: 1393 mL

Question: What about the “TIMI Major/Minor bleeding, patients (%)” value ([4]; 10 mg loading dose) of the same compound?
Answer: 90%

Question: What about the “Transfusion PRBC, patients (%)” value ([4]; 10 mg loading dose) of the same compound?
Answer: 80%

Question: What about the “non-TIMI bleeding, patients (%)” value ([4]; 10 mg loading dose) of the same compound?
Answer: 30% and 20%

Question: What about the “Any bleed, patients (%)” value ([4]; 20 mg loading dose) of the same compound?
Answer: 100%

Question: And the “Chest Tube Drainage” value ([4]; 20 mg loading dose)?
Answer: 1015 mL

Question: And the “TIMI Major/Minor bleeding, patients (%)” value ([4]; 20 mg loading dose)?
Answer: 94%

Question: What about the “Transfusion PRBC, patients (%)” value ([4]; 20 mg loading dose) of the same compound?
Answer: 50%

Question: And the “non-TIMI bleeding, patients (%)” value ([4]; 20 mg loading dose)?
Answer: 33%

Question: What about the “Any bleed, patients (%)” value ([4]; 40 mg loading dose) of the same compound?
Answer: 100%

Question: And the “Chest Tube Drainage” value ([4]; 40 mg loading dose)?
Answer: 870 mL

Question: What about the “TIMI Major/Minor bleeding, patients (%)” value ([4]; 40 mg loading dose) of the same compound?
Answer: 92%

Question: And the “Transfusion PRBC, patients (%)” value ([4]; 40 mg loading dose)?
Answer: 63%

Question: What about the “non-TIMI bleeding, patients (%)” value ([4]; 40 mg loading dose) of the same compound?
Answer: 39%

Question: And the “Any bleed, patients (%)” value ([4]; All SCH 530348)?
Answer: 100%

Question: What about the “Chest Tube Drainage” value ([4]; All SCH 530348) of the same compound?
Answer: 988 mL

Question: What about the “TIMI Major/Minor bleeding, patients (%)” value ([4]; All SCH 530348) of the same compound?
Answer: 94% and 92%

Question: And the “Transfusion PRBC, patients (%)” value ([4]; All SCH 530348)?
Answer: 62%

Question: What about the “non-TIMI bleeding, patients (%)” value ([4]; All SCH 530348) of the same compound?
Answer: 35% and 33%

Question: What about the “Tested population achieving clinically relevant inhibition of platelet aggregation” value (platelets [5]; 1.0 mg/day maintenance) of the same compound?
Answer: 100%

Question: And the “Tested population achieving clinically relevant inhibition of platelet aggregation” value (platelets [5]; 2.5 mg/day maintenance)?
Answer: 100%

Question: What about the “Maximum inhibition of TRAP-induced platelet aggregation” value (platelets [5]; 20 mg) of the same compound?
Answer: > 80%

Question: What about the “Time to therapeutically effective levels (at least 80%) of platelet inhibition” value (platelets [5]; 40 mg loading dose) of the same compound?
Answer: in as little as one hour

Question: And the “Tested population with clinically relevant platelet aggregation inhibition within 2 hours” value (platelets [5]; 40 mg loading dose (only this dose))?
Answer: more than 90%

Question: And the “Patients with ≧80% inhibition of TRAP induced platelet aggregation” value (“Patients with ≧80% inhibition” below) (platelets [5]; 40 mg loading dose, 1 hour)?
Answer: Approximately 68%

Question: What about the “Patients with ≧80% inhibition” value (platelets [5]; 40 mg loading dose, 1.5 hours) of the same compound?
Answer: ~82%

Question: And the “Patients with ≧80% inhibition” value (platelets [5]; 40 mg loading dose, 2 hours)?
Answer: ~96%

Question: And the “Maximum inhibition of TRAP-induced platelet aggregation” value (platelets [5]; 40 mg)?
Answer: > 80%

Question: And the “Inhibition of platelet aggregation at thirty and sixty days” value (platelets [5]; all three maintenance doses (0.5, 1.0, 2.5 mg))?
Answer: clinically relevant inhibition of platelet aggregation

Question: What about the “Inhibition of TRAP-induced platelet aggregation, dose dependency” value (platelets [5]; in vivo) of the same compound?
Answer: dose-related inhibition

Question: And the “Inhibition of TRAP-induced platelet aggregation” value (platelets [5]; multiple doses of 1 mg/day)?
Answer: significantly inhibited

Question: And the “Inhibition of TRAP-induced platelet aggregation” value (platelets [5]; single doses as low as 5 mg)?
Answer: significantly inhibited

Question: What about the “Platelet activation (expression of P-selectin or CD40 ligand)” value (platelets [6]) of the same compound?
Answer: without activating platelets

Question: What about the “Discontinuation of study drug for any adverse event, patients (%)” value [7] of the same compound?
Answer: 6%

Question: And the “Patients completing the sixty day treatment period (%)” value [7]?
Answer: 84%
